Results published in patent publication US12622875B2, “Dosage form comprising an alkaline agent and an enteric coating layer” (Evonik Operations GmbH, priority 2019, dated 2026).
Counter-ions that a name gives are not always drawn.

Columns and labels:
[1] = Pantoprazole Sodium solution stability at different pH and temperature (HPLC % assay); type: physicochemical
[2] = Benazepril HCl API solution stability at different pH and temperature (HPLC % assay); type: physicochemical

Structure (SMILES): COc1ccnc(C[S+]([O-])c2nc3ccc(OC(F)F)cc3[nH]2)c1OC (centres unmarked) [Pantoprazole Sodium]
- % Assay of Pantoprazole Sodium ([1]; pH 1.2, 22° C., 15 min): 27%
- % Assay of Pantoprazole Sodium ([1]; pH 1.2, 22° C., 30 min): 13%
- % Assay of Pantoprazole Sodium ([1]; pH 1.2, 22° C., 60 min): 7%
- % Assay of Pantoprazole Sodium ([1]; pH 1.2, 22° C., 120 min): 5%
- % Assay of Pantoprazole Sodium ([1]; pH 1.2, 22° C., Initial): 88%
- % Assay of Pantoprazole Sodium ([1]; pH 1.2, 40° C., 15 min): 17%
- % Assay of Pantoprazole Sodium ([1]; pH 1.2, 40° C., 30 min): 6%
- % Assay of Pantoprazole Sodium ([1]; pH 1.2, 40° C., 60 min): 4%
- % Assay of Pantoprazole Sodium ([1]; pH 1.2, 40° C., 120 min): 3%
- % Assay of Pantoprazole Sodium ([1]; pH 3.0, 22° C., 15 min): 32%
- % Assay of Pantoprazole Sodium ([1]; pH 3.0, 22° C., 30 min): 20%
- % Assay of Pantoprazole Sodium ([1]; pH 3.0, 22° C., 60 min): 5%
- % Assay of Pantoprazole Sodium ([1]; pH 3.0, 22° C., 120 min): 1%
- % Assay of Pantoprazole Sodium ([1]; pH 3.0, 22° C., Initial): 81%
- % Assay of Pantoprazole Sodium ([1]; pH 3.0, 40° C., 15 min): 3%
- % Assay of Pantoprazole Sodium ([1]; pH 3.0, 40° C., 30 min): 2%
- % Assay of Pantoprazole Sodium ([1]; pH 3.0, 40° C., 60 min): 2%
- % Assay of Pantoprazole Sodium ([1]; pH 3.0, 40° C., 120 min): 1%
- % Assay of Pantoprazole Sodium ([1]; pH 4.5, 22° C., 15 min): 97%
- % Assay of Pantoprazole Sodium ([1]; pH 4.5, 22° C., 30 min): 96%
- % Assay of Pantoprazole Sodium ([1]; pH 4.5, 22° C., 60 min): 94%
- % Assay of Pantoprazole Sodium ([1]; pH 4.5, 22° C., 120 min): 89%
- % Assay of Pantoprazole Sodium ([1]; pH 4.5, 22° C., Initial): 98%
- % Assay of Pantoprazole Sodium ([1]; pH 4.5, 40° C., 15 min): 92%
- % Assay of Pantoprazole Sodium ([1]; pH 4.5, 40° C., 30 min): 89%
- % Assay of Pantoprazole Sodium ([1]; pH 4.5, 40° C., 60 min): 79%
- % Assay of Pantoprazole Sodium ([1]; pH 4.5, 40° C., 120 min): 64%
- % Assay of Pantoprazole Sodium ([1]; pH 5.5, 22° C., 15 min): 98%
- % Assay of Pantoprazole Sodium ([1]; pH 5.5, 22° C., 30 min): 92%
- % Assay of Pantoprazole Sodium ([1]; pH 5.5, 22° C., 60 min): 94%
- % Assay of Pantoprazole Sodium ([1]; pH 5.5, 22° C., 120 min): 88%
- % Assay of Pantoprazole Sodium ([1]; pH 5.5, 22° C., Initial): 98%
- % Assay of Pantoprazole Sodium ([1]; pH 5.5, 40° C., 15 min): 97%
- % Assay of Pantoprazole Sodium ([1]; pH 5.5, 40° C., 30 min): 86%
- % Assay of Pantoprazole Sodium ([1]; pH 5.5, 40° C., 60 min): 77%
- % Assay of Pantoprazole Sodium ([1]; pH 5.5, 40° C., 120 min): 53%

Structure (SMILES): CCOC(=O)[C@H](CCc1ccccc1)N[C@H]1CCc2ccccc2N(CC(=O)O)C1=O [Benazepril HCl]
- % Assay of Benazepril HCl ([2]; pH 1.2, 22° C., Initial): 101%
- % Assay of Benazepril HCl ([2]; pH 1.2, 40° C., 2 Hour): 100%
- % Assay of Benazepril HCl ([2]; pH 1.2, 40° C., 4 Hour): 100%
- % Assay of Benazepril HCl ([2]; pH 1.2, 40° C., 24 Hour): 99%
- % Assay of Benazepril HCl ([2]; pH 3, 22° C., Initial): 100%
- % Assay of Benazepril HCl ([2]; pH 3, 40° C., 2 Hour): 99%
- % Assay of Benazepril HCl ([2]; pH 3, 40° C., 4 Hour): 99%
- % Assay of Benazepril HCl ([2]; pH 3, 40° C., 24 Hour): 98%
- % Assay of Benazepril HCl ([2]; pH 4, 22° C., Initial): 100%
- % Assay of Benazepril HCl ([2]; pH 4, 40° C., 2 Hour): 99%
- % Assay of Benazepril HCl ([2]; pH 4, 40° C., 4 Hour): 99%
- % Assay of Benazepril HCl ([2]; pH 4, 40° C., 24 Hour): 98%
- % Assay of Benazepril HCl ([2]; pH 7, 22° C., Initial): 100%
- % Assay of Benazepril HCl ([2]; pH 7, 40° C., 2 Hour): 100%
- % Assay of Benazepril HCl ([2]; pH 7, 40° C., 4 Hour): 100%
- % Assay of Benazepril HCl ([2]; pH 7, 40° C., 24 Hour): 97%
- % Assay of Benazepril HCl ([2]; pH 9, 22° C., Initial): 101%
- % Assay of Benazepril HCl ([2]; pH 9, 40° C., 2 Hour): 99%
- % Assay of Benazepril HCl ([2]; pH 9, 40° C., 4 Hour): 99%
- % Assay of Benazepril HCl ([2]; pH 9, 40° C., 24 Hour): 91%
